Experimental data reported in patent US6838414B2, “Substituted aryl sulphonyl(thio)ureas used as herbicides” (Bayer Aktiengesellschaft, priority 1996, dated 2005).

Tests used:
Type in all cases: in vivo
Abutilon = assay: Post-emergence test/greenhouse; settings: rated after three weeks vs untreated control
Method: (§1) To produce a suitable preparation of active compound, 1 part by weight of active compound is mixed with the stated amount of solvent, the stated amount of emulsifier is added and the concentrate is diluted with water to the desired concentration.
(§2) Test plants which have a height of 5-15 cm are sprayed with the preparation of the active compound in such a way as to apply the particular amounts of active compound desired per unit area. The concentration of the spray liquor is chosen so that the amounts of active compound desired in each case are applied in 1000 l of water/ha.
(§3) After three weeks, the degree of damage to the plants is rated in % damage in comparison with the development of the untreated control.
(§4) The figures denote: • 0%=no effect (like untreated control) • 100%=total destruction

weeds [1] = assay: Post-emergence test/greenhouse
Method: as §1, §2, §3, §4

Alopecurus [2] = assay: Post-emergence test/greenhouse; settings: rated after three weeks vs untreated control
Method: as §1, §2, §3, §4

Matricaria = assay: Post-emergence test/greenhouse; settings: rated after three weeks vs untreated control
Method: as §1, §2, §3, §4

Echinochloa = assay: Post-emergence test/greenhouse; settings: rated after three weeks vs untreated control
Method: as §1, §2, §3, §4

Amaranthus = assay: Pre-emergence test/greenhouse; settings: after three weeks
Method: as §1
(§5) Seeds of the test plants are sown in normal soil. After about 24 hours, the soil is sprayed with the preparation of the active compound. Advantageously, the amount of water per unit area is kept constant. The active compound concentration in the preparation is not important, only the active compound application rate per unit area is critical.
as §3, §4

Stellaria = assay: Pre-emergence test/greenhouse; settings: after three weeks
Method: as §1, §5, §3, §4

Alopecurus [3] = assay: Pre-emergence test/greenhouse; settings: after three weeks
Method: as §1, §5, §3, §4

Lolium = assay: Pre-emergence test/greenhouse; settings: after three weeks
Method: as §1, §5, §3, §4

Sorghum = assay: Pre-emergence test/greenhouse; settings: after three weeks
Method: as §1, §5, §3, §4

Chenopodium = assay: Pre-emergence test/greenhouse; settings: after three weeks
Method: as §1, §5, §3, §4

weeds [4] = assay: Pre-emergence test (overall statement); settings: application rates between 30 g and 125 g of a.i. per hectare
Method: as §1, §5, §3, §4

[5] = application rate 30 g of ai./ha
[6] = application rate 125 g of ai./ha
[7] = application rate 60 g of ai./ha

SMILES | degree of damage to the plants, Abutilon (Abutilon; [5]) | activity against weeds (weeds [1]) | degree of damage to the plants, Alopecurus (Alopecurus [2]; [5]) | degree of damage to the plants, Matricaria (Matricaria; [5]) | degree of damage to the plants, Echinochloa (Echinochloa; [5]) | Steltaria, % damage (Stellaria; 30 g of ai./ha) | Alopecurus, % damage (Alopecurus [3]; 30 g of ai./ha) | Sorghum, % damage (Sorghum; 30 g of ai./ha) | Chenopodium, % damage (Chenopodium; 30 g of ai./ha) | activity against weeds (weeds [4]) | also measured
CCCOc1cccc(C)c1S(=O)(=O)NC(=O)Nc1nc(C)nc(OC)n1 [Example 49] | 100% | very strong activity against weeds | 90% | 100% | 80% | 100% | 100% | 100% | 100% | very strong activity against weeds | Amaranthus, % damage (Amaranthus; 30 g of ai./ha): 100%; Lolium, % damage (Lolium; 30 g of ai./ha): 100%
COc1cc(OC)nc(NC(=O)NS(=O)(=O)c2c(C)cccc2OC(F)F)n1 [Example 65] |  | very strong activity against weeds |  |  |  |  |  |  |  | very strong activity against weeds | degree of damage to the plants, Abutilon (Abutilon; [6]): 100%; degree of damage to the plants, Alopecurus (Alopecurus [2]; [6]): 90%; degree of damage to the plants, Matricaria (Matricaria; [6]): 100%; degree of damage to the plants, Echinochloa (Echinochloa; [6]): 90%; Amaranthus, % damage (Amaranthus; 125 g of ai./ha): 95%; Steltaria, % damage (Stellaria; 125 g of ai./ha): 95%; Alopecurus, % damage (Alopecurus [3]; 125 g of ai./ha): 95%; Lolium, % damage (Lolium; 125 g of ai./ha): 70%; Chenopodium, % damage (Chenopodium; 125 g of ai./ha): 95%
COc1cc(OC)nc(NC(=O)NS(=O)(=O)c2c(OC)cccc2C(F)(F)F)n1 [Example 22] | 95% | very strong activity against weeds | 60% | 95% | 80% | 100% | 100% | 95% | 100% | very strong activity against weeds | Amaranthus, % damage (Amaranthus; 30 g of ai./ha): 100%
COc1cc(OC)nc(NC(=O)NS(=O)(=O)c2c(OC(C)C)cccc2C(F)(F)F)n1 [Example 25] | 95% | very strong activity against weeds | 60% | 90% | 70% |  |  |  |  |  | 
CCOc1cccc(C(C)C)c1S(=O)(=O)NC(=O)Nc1nc(OC)nc(OC)n1 [Example 51] |  | very strong activity against weeds |  |  |  |  |  |  |  |  | degree of damage to the plants, Abutilon (Abutilon; [7]): 100%; degree of damage to the plants, Alopecurus (Alopecurus [2]; [7]): 80%; degree of damage to the plants, Matricaria (Matricaria; [7]): 90%; degree of damage to the plants, Echinochloa (Echinochloa; [7]): 90%
CCOc1cccc(C(F)(F)F)c1S(=O)(=O)NC(=O)Nc1nc(Cl)cc(OC)n1 [Example 16] | 100% | very strong activity against weeds | 70% | 100% | 70% | 90% | 100% | 80% | 100% | very strong activity against weeds | 
CCCOc1cccc(C(F)(F)F)c1S(=O)(=O)NC(=O)Nc1nc(Cl)cc(OC)n1 [Example 17] | 90% | very strong activity against weeds |  | 95% | 70% |  |  |  |  |  | 
CCOc1cccc(C(F)(F)F)c1S(=O)(=O)NC(=O)Nc1nc(OC)cc(OC)n1 [Example 23] | 95% | very strong activity against weeds | 60% | 95% | 70% |  |  |  |  |  | 
Cc1cc(C)nc(NC(=O)NS(=O)(=O)c2c(OC(C)C)cccc2C(F)(F)F)n1 [Example 14] |  |  |  |  |  | 95% | 100% | 95% | 95% | very strong activity against weeds | Lolium, % damage (Lolium; 30 g of ai./ha): 100%
CCOc1cccc(C(F)(F)F)c1S(=O)(=O)NC(=O)Nc1nc(C)cc(C)n1 [Example 8] | 90% | very strong activity against weeds | 80% | 100% | 90% | 90% | 100% | 100% | 80% | very strong activity against weeds | Lolium, % damage (Lolium; 30 g of ai./ha): 100%
COc1nc(NC(=O)NS(=O)(=O)c2c(OC(C)C)cccc2C(F)(F)F)nc(OC)n1 [Example 13] |  |  |  |  |  |  |  |  |  | very strong activity against weeds | Amaranthus, % damage (Amaranthus; 60 g of ai./ha): 100%; Steltaria, % damage (Stellaria; 60 g of ai./ha): 100%; Alopecurus, % damage (Alopecurus [3]; 60 g of ai./ha): 100%; Lolium, % damage (Lolium; 60 g of ai./ha): 100%; Sorghum, % damage (Sorghum; 60 g of ai./ha): 100%; Chenopodium, % damage (Chenopodium; 60 g of ai./ha): 100%
CCCOc1cccc(C)c1S(=O)(=O)NC(=O)Nc1nc(C)cc(OC)n1 [Example 46] |  |  |  |  |  |  |  |  |  | very strong activity against weeds | Amaranthus, % damage (Amaranthus; 60 g of ai./ha): 90%; Steltaria, % damage (Stellaria; 60 g of ai./ha): 80%; Alopecurus, % damage (Alopecurus [3]; 60 g of ai./ha): 100%; Lolium, % damage (Lolium; 60 g of ai./ha): 90%; Sorghum, % damage (Sorghum; 60 g of ai./ha): 100%; Chenopodium, % damage (Chenopodium; 60 g of ai./ha): 100%
CCCOc1cccc(C(F)(F)F)c1S(=O)(=O)NC(=O)Nc1nc(OC)cc(OC)n1 [Example 24] | 95% | very strong activity against weeds | 60% | 95% | 70% |  |  |  |  |  | 
C#CCOc1cccc(C)c1S(=O)(=O)NC(=O)Nc1nc(OC)cc(OC)n1 [Example 34] | 90% | very strong activity against weeds | 60% | 90% | 80% | 90% | 100% | 90% | 90% | very strong activity against weeds | 
CCCOc1cccc(C(F)(F)F)c1S(=O)(=O)NC(=O)Nc1nc(C)cc(C)n1 [Example 11] |  |  |  |  |  |  |  |  |  | very strong activity against weeds | Amaranthus, % damage (Amaranthus; 60 g of ai./ha): 100%; Steltaria, % damage (Stellaria; 60 g of ai./ha): 95%; Alopecurus, % damage (Alopecurus [3]; 60 g of ai./ha): 100%; Lolium, % damage (Lolium; 60 g of ai./ha): 100%; Sorghum, % damage (Sorghum; 60 g of ai./ha): 100%; Chenopodium, % damage (Chenopodium; 60 g of ai./ha): 100%
COc1nc(C)nc(NC(=O)NS(=O)(=O)c2c(C)cccc2OC2CCCC2)n1 [Example 56] |  |  |  |  |  |  |  |  |  | very strong activity against weeds | Amaranthus, % damage (Amaranthus; 60 g of ai./ha): 100%; Steltaria, % damage (Stellaria; 60 g of ai./ha): 100%; Alopecurus, % damage (Alopecurus [3]; 60 g of ai./ha): 100%; Lolium, % damage (Lolium; 60 g of ai./ha): 100%; Sorghum, % damage (Sorghum; 60 g of ai./ha): 90%; Chenopodium, % damage (Chenopodium; 60 g of ai./ha): 100%
COc1cc(C)nc(NC(=O)NS(=O)(=O)c2c(C)cccc2OC(C)C)n1 [Example 33] |  |  |  |  |  | 90% | 100% | 100% | 70% | very strong activity against weeds | Lolium, % damage (Lolium; 30 g of ai./ha): 95%
CCCOc1cccc(C(F)(F)F)c1S(=O)(=O)NC(=O)Nc1nc(OC)nc(OC)n1 [Example 10] |  |  |  |  |  |  |  |  |  | very strong activity against weeds | Amaranthus, % damage (Amaranthus; 60 g of ai./ha): 100%; Steltaria, % damage (Stellaria; 60 g of ai./ha): 100%; Alopecurus, % damage (Alopecurus [3]; 60 g of ai./ha): 100%; Lolium, % damage (Lolium; 60 g of ai./ha): 100%; Sorghum, % damage (Sorghum; 60 g of ai./ha): 100%; Chenopodium, % damage (Chenopodium; 60 g of ai./ha): 100%
